Source: patent publication US4269839A, “Alkylthio-adenines used as bronchodilators” (Bristol-Myers Company, priority 1979, dated 1981)
In brackets after ≈: the same amount, converted by molar mass.

How the values were obtained:
anesthetized guinea pig = experiment: In vivo hypotensive activity, arterial blood pressure (ABP) in the guinea pig; settings: intravenous, artificial ventilation
Experimental: (§1) B. In Vivo Bronchodilator and Hypotensive Activity.
(§2) The trachea of anesthetized guinea pig was cannulated and the ITP recorded on a polygraph under artificial ventilation. Arterial blood pressure (ABP; reflecting hypotensive activity) was also measured during the experiment. Either intravenous or intraduodenal routes of administration are used. […] The ratio of hypotensive ED20 /bronchodilating ED50 reflects an assessment of the separation of desirable bronchodilator activity from undesirable cardiovascular (hypotensive) effect in the compounds.

[1] = system: tracheal chains of guinea pig; experiment: In vitro bronchodilator activity, tracheal chains of guinea pig (Magnus method); format: cell-based; settings: Cavia porcellus, relative to maximum response to 0.1 mcg./ml. isoproterenol, read-out: EC50 (concentration which produces a relaxation which is 50% of the maximum response to 0.1 mcg./ml. of isoproterenol)
Experimental: A. In Vitro Bronchodilator Activity.
Tracheal chains of guinea pig were prepared by the method of A. Akcasu, Arch. Int. Pharmcodyn. […] The response to each test compound was recorded by the Magnus method and expressed as a percentage of the maximum response obtained with 0.1 mcg./ml. of isoproterenol prior to each experiment.

[2] = system: trachea of anesthetized guinea pig; experiment: In vivo bronchodilator activity, decrease in intratracheal pressure (ITP) in the guinea pig; settings: intravenous; for ED50: Cavia porcellus, anesthetized guinea pig, artificial ventilation, read-out: ITP ED50 (dose resulting in a 50% decrease in intratracheal pressure); for Ratio ABP/ITP (hypotensive ED20/bronchodilating ED50): separation of bronchodilator activity from hypotensive effect
Experimental: as §1, §2

Compound | ABP ED20 (dose which reduces arterial blood pressure by 20%) (anesthetized guinea pig) [mg/kg] | EC50 [1] [mg/L] | ED50 [2] [mg/kg] | Ratio ABP/ITP (hypotensive ED20/bronchodilating ED50) [2]
CCCSc1nc(N)c2ncn(C3C=CCCC3)c2n1 (stereo not drawn) [Example 1, 9-(2-Cyclohexenyl)-2-n-propylthio-9H-adenine] | > 3 | 0.02 (≈ 0.0691 µM) | 0.31 | > 9.7
CCCSc1nc(N)c2ncn(C3CCCCC3)c2n1 [Example 2, 9-Cyclohexyl-2-n-propylthio-9H-adenine] | > 3 | 0.19 (≈ 0.652 µM) | 1.1 | > 2.7
Cn1c(=O)c2[nH]cnc2n(C)c1=O [Aminophylline, reference compound] | 1.4 |  |  | 
